Here are results for 10 compounds from PubChem BioAssay AID1259407 (Chemical Carcinogenesis Research Information System (CCRIS), 2018).

The source made the active and inactive calls. No rule for the calls is given here.

The data set deals with CCRIS mutagenicity, Ames/micronucleus/aberration tests. The data set can be described thus: CCRIS mutagenicity studies.
Where [1] appears, read: Test System: AMES SALMONELLA TYPHIMURIUM, Strain/Indicator: TA98, Metabolic Activation: NONE, Method: PREINCUBATION
Setting [2] is: Test System: AMES SALMONELLA TYPHIMURIUM, Strain/Indicator: TA98, Metabolic Activation: RAT, LIVER, S-9, AROCLOR 1254, Method: PREINCUBATION
[3] abbreviates: Test System: AMES SALMONELLA TYPHIMURIUM, Strain/Indicator: TA100, Metabolic Activation: NONE, Method: PREINCUBATION
The mark [4] stands for this setting: Test System: AMES SALMONELLA TYPHIMURIUM, Strain/Indicator: TA100, Metabolic Activation: RAT, LIVER, S-9, AROCLOR 1254, Method: PREINCUBATION
Setting [5] is: Test System: AMES SALMONELLA TYPHIMURIUM, Strain/Indicator: TA98, Metabolic Activation: NONE, Method: STANDARD PLATE.
The mark [6] stands for this setting: Test System: AMES SALMONELLA TYPHIMURIUM, Strain/Indicator: TA98, Metabolic Activation: RAT, LIVER, S-9, AROCLOR 1254, Method: STANDARD PLATE.
Where [7] appears, read: Test System: AMES SALMONELLA TYPHIMURIUM, Strain/Indicator: TA100, Metabolic Activation: NONE, Method: STANDARD PLATE.
Where [8] appears, read: Test System: AMES SALMONELLA TYPHIMURIUM, Strain/Indicator: TA100, Metabolic Activation: RAT, LIVER, S-9, AROCLOR 1254, Method: STANDARD PLATE.
The mark [9] stands for this setting: Test System: AMES SALMONELLA TYPHIMURIUM, Strain/Indicator: TA1535, Metabolic Activation: NONE, Method: PREINCUBATION
Setting [10] is: Test System: AMES SALMONELLA TYPHIMURIUM, Strain/Indicator: TA1535, Metabolic Activation: NONE, Method: STANDARD PLATE.
Where [11] appears, read: Test System: AMES SALMONELLA TYPHIMURIUM, Strain/Indicator: TA1535, Metabolic Activation: RAT, LIVER, S-9, AROCLOR 1254, Method: STANDARD PLATE.
Setting [12] is: Test System: AMES SALMONELLA TYPHIMURIUM, Strain/Indicator: TA1537, Metabolic Activation: NONE, Method: STANDARD PLATE.
Setting [13] is: Test System: AMES SALMONELLA TYPHIMURIUM, Strain/Indicator: TA1537, Metabolic Activation: RAT, LIVER, S-9, AROCLOR 1254, Method: STANDARD PLATE.

For the compound `O=c1oc2c([N+](=O)[O-])ccc3ccc4cccc1c4c32`, the mutagenic call by setting is: (Test System: AMES SALMONELLA TYPHIMURIUM, Strain/Indicator: TA98(1,8-DNP6), Metabolic Activation: NONE, Method: PREINCUBATION) “active; positive”; (Test System: AMES SALMONELLA TYPHIMURIUM, Strain/Indicator: TA98(1,8-DNP6), Metabolic Activation: RAT, LIVER, S-9, AROCLOR 1254, Method: PREINCUBATION) “active; positive”; (Test System: AMES SALMONELLA TYPHIMURIUM, Strain/Indicator: TA98(NR), Metabolic Activation: NONE, Method: PREINCUBATION) “active; positive”; (Test System: AMES SALMONELLA TYPHIMURIUM, Strain/Indicator: TA98(NR), Metabolic Activation: RAT, LIVER, S-9, AROCLOR 1254, Method: PREINCUBATION) “active; positive”; under setting [1], “active; positive”; under setting [2], “active; positive”. Further, the mutagenic call was “active; positive” under setting [3] and “active; positive” under setting [4].

`Fc1cc2cccnc2c2ccccc12`: for the setting “Test System: AMES SALMONELLA TYPHIMURIUM, Strain/Indicator: TA100, Metabolic Activation: RAT, LIVER, S-9, PHENOBARBITAL AND 5,6-BENZOFLAVONE, Method: PREINCUBATION”, the mutagenic call was “active; positive”.

As for `Nc1ccc2nc3ccccc3nc2c1`, the mutagenic call is “inactive; negative” under setting [1] and “active; positive” (Test System: AMES SALMONELLA TYPHIMURIUM, Strain/Indicator: TA98, Metabolic Activation: RAT, LIVER, S-9, PCB, Method: PREINCUBATION).

For `O=c1[nH]c(=O)[nH]c(=O)[nH]1`, the mutagenic call is “inactive; negative” (Test System: AMES SALMONELLA TYPHIMURIUM, Strain/Indicator: TA98, Metabolic Activation: HAMSTER, LIVER, S-9, AROCLOR 1254, Method: PREINCUBATION); “inactive; negative” under setting [1]; “inactive; negative” under setting [5]; “inactive; negative” under setting [2]; “inactive; negative” under setting [6]; “inactive; negative” (Test System: AMES SALMONELLA TYPHIMURIUM, Strain/Indicator: TA100, Metabolic Activation: HAMSTER, LIVER, S-9, AROCLOR 1254, Method: PREINCUBATION). Besides, the mutagenic call runs as follows: under setting [3], “inactive; negative”; under setting [7], “inactive; negative”; under setting [4], “inactive; negative”; under setting [8], “inactive; negative”; (Test System: AMES SALMONELLA TYPHIMURIUM, Strain/Indicator: TA1535, Metabolic Activation: HAMSTER, LIVER, S-9, AROCLOR 1254, Method: PREINCUBATION) “inactive; negative”; under setting [9], “inactive; negative”. Also, the mutagenic call reads like this: under setting [10], “inactive; negative”; (Test System: AMES SALMONELLA TYPHIMURIUM, Strain/Indicator: TA1535, Metabolic Activation: RAT, LIVER, S-9, AROCLOR 1254, Method: PREINCUBATION) “inactive; negative”; under setting [11], “inactive; negative”; (Test System: AMES SALMONELLA TYPHIMURIUM, Strain/Indicator: TA1537, Metabolic Activation: HAMSTER, LIVER, S-9, AROCLOR 1254, Method: PREINCUBATION) “inactive; negative”; (Test System: AMES SALMONELLA TYPHIMURIUM, Strain/Indicator: TA1537, Metabolic Activation: NONE, Method: PREINCUBATION) “inactive; negative”; under setting [12], “inactive; negative”. Further, the mutagenic call (Test System: AMES SALMONELLA TYPHIMURIUM, Strain/Indicator: TA1537, Metabolic Activation: RAT, LIVER, S-9, AROCLOR 1254, Method: PREINCUBATION) is “inactive; negative”; the mutagenic call under setting [13] is “inactive; negative”; the mutagenic call (Test System: MOUSE LYMPHOMA, Strain/Indicator: L5178Y (TK+/TK-), Metabolic Activation: NONE, Method: SUSPENSION/PLATE) was “inactive; negative”; the mutagenic call (Test System: MOUSE LYMPHOMA, Strain/Indicator: L5178Y (TK+/TK-), Metabolic Activation: RAT, LIVER, S-9, AROCLOR 1254, Method: SUSPENSION/PLATE) was “inactive; negative”.

Take `CC(=O)c1ccc(N)cc1`: the mutagenic call (Test System: E. COLI, Strain/Indicator: WP2 UVRA, Metabolic Activation: NONE, Method: FLUCTUATION TEST) is “inactive; negative”.

Turning to `CCC(=O)OCC(=O)[C@@]1(OC(=O)CC)[C@H](C)C[C@H]2[C@H]3[C@H]([C@@H](O)C[C@@]21C)[C@@]1(C)C=CC(=O)C=C1C[C@H]3Cl`, the mutagenic call was “inactive; negative” under setting [5]; “inactive; negative” under setting [6]; “inactive; negative” under setting [7]; “inactive; negative” under setting [8]; “inactive; negative” under setting [10]; “inactive; negative” under setting [11]. The mutagenic call reads like this: under setting [12], “inactive; negative”; under setting [13], “inactive; negative”; (Test System: E. COLI, Strain/Indicator: WP2, Metabolic Activation: NONE, Method: STANDARD PLATE) “inactive; negative”; (Test System: E. COLI, Strain/Indicator: WP2, Metabolic Activation: RAT, LIVER, S-9, AROCLOR 1254, Method: STANDARD PLATE) “inactive; negative”; (Test System: E. COLI, Strain/Indicator: WP2 UVRA, Metabolic Activation: NONE, Method: STANDARD PLATE) “inactive; negative”; (Test System: E. COLI, Strain/Indicator: WP2 UVRA, Metabolic Activation: RAT, LIVER, S-9, AROCLOR 1254, Method: STANDARD PLATE) “inactive; negative”.

As for `c1ccc(-c2ccc(CC3CO3)cc2)cc1` (centres undefined), the mutagenic call is “active; positive” under setting [3], “active; positive” under setting [7], “active; positive” under setting [9] and “active; positive” under setting [10].

For the compound `Cn1c([N+](=O)[O-])cnc1C1NC(CO)(CO)CO1` (centres undefined), the mutagenic call runs as follows: (Test System: AMES SALMONELLA TYPHIMURIUM, Strain/Indicator: TA97, Metabolic Activation: NONE, Method: STANDARD PLATE) “active; positive”; (Test System: AMES SALMONELLA TYPHIMURIUM, Strain/Indicator: TA97, Metabolic Activation: RAT, LIVER, S-9, AROCLOR 1254, Method: STANDARD PLATE) “active; positive”; under setting [5], “active; positive”; under setting [6], “active; positive”; under setting [7], “active; positive”; under setting [8], “active; positive”. Also, the mutagenic call (Test System: AMES SALMONELLA TYPHIMURIUM, Strain/Indicator: TA102, Metabolic Activation: NONE, Method: STANDARD PLATE) was “active; positive” and the mutagenic call (Test System: AMES SALMONELLA TYPHIMURIUM, Strain/Indicator: TA102, Metabolic Activation: RAT, LIVER, S-9, AROCLOR 1254, Method: STANDARD PLATE) is “active; positive”.

For the compound `N=c1ccn2c(n1)O[C@H]1[C@H](O)[C@@H](CO)O[C@H]12`, the mutagenic call (Test System: AMES SALMONELLA TYPHIMURIUM, Strain/Indicator: TA98, Metabolic Activation: S-9, Method: STANDARD PLATE) is “inactive; negative”; the mutagenic call (Test System: AMES SALMONELLA TYPHIMURIUM, Strain/Indicator: TA100, Metabolic Activation: S-9, Method: STANDARD PLATE) is “inactive; negative”; the mutagenic call (Test System: AMES SALMONELLA TYPHIMURIUM, Strain/Indicator: TA1537, Metabolic Activation: S-9, Method: STANDARD PLATE) was “inactive; negative”; the mutagenic call (Test System: E. COLI, Strain/Indicator: WP2 (HCR), Metabolic Activation: S-9, Method: STANDARD PLATE) was “inactive; negative”.

Consider `CCOC(=O)CNC(=O)C=[N+]=[N-]`, for which the mutagenic call under setting [10] is “active; positive” and the mutagenic call (Test System: UDS RODENT PRIMARY CELLS, Strain/Indicator: THY INCORP (NON-S-PHASE), Metabolic Activation: NONE, Method: AUTORADIOGRAPHY) is “active; positive”.
